According to the supplement of paper PMC10307832:

Assays:
Experiment in all cases: relative viability (nuclei count vs DMSO), 5 days (fraction); higher = more cells survive
Quizartinib + Crizotinib = compound: CC(C)(C)c1cc(NC(=O)Nc2ccc(-c3cn4c(n3)sc3cc(OCCN5CCOCC5)ccc34)cc2)no1 [Quizartinib] + C[C@@H](Oc1cc(-c2cnn(C3CCNCC3)c2)cnc1N)c1c(Cl)ccc(F)c1Cl [Crizotinib] (partner 1 µM)
Method in brief: (§1)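 The day after seeding in 1536-well plates, lung cancer cell lines were treated by pin tool with a single drug, or with a fixed anchor-drug dose together with five library-drug doses (not always all listed) in √10 steps. After 5 days, a combined fix-and-stain solution (final 0.05% Triton X-100, 1% formaldehyde, 1 ug/ml Hoechst) was added. Nuclei counted on 4× images gave relative viability as treated counts over vehicle counts, reported as the median of duplicate plates.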

Quizartinib + OSI-027 = compound: CC(C)(C)c1cc(NC(=O)Nc2ccc(-c3cn4c(n3)sc3cc(OCCN5CCOCC5)ccc34)cc2)no1 [Quizartinib] + COc1cccc2cc(-c3nc([C@H]4CC[C@H](C(=O)O)CC4)n4ncnc(N)c34)[nH]c12 [OSI-027] (partner 0.5 µM)
Method in brief: as §1

YM155 + OSI-027 = compound: COCC[n+]1c2c(n(Cc3cnccn3)c1C)C(=O)c1ccccc1C2=O [YM155] + COc1cccc2cc(-c3nc([C@H]4CC[C@H](C(=O)O)CC4)n4ncnc(N)c34)[nH]c12 [OSI-027] (partner 0.5 µM)
Method in brief: as §1

Quizartinib + Decitabine = compound: CC(C)(C)c1cc(NC(=O)Nc2ccc(-c3cn4c(n3)sc3cc(OCCN5CCOCC5)ccc34)cc2)no1 [Quizartinib] + Nc1ncn([C@H]2C[C@H](O)[C@@H](CO)O2)c(=O)n1 [Decitabine] (partner 2 µM)
Method in brief: as §1

Row | Cell Line | relative viability (Quizartinib + Crizotinib; first compound 0.001 µM) | relative viability (Quizartinib + Crizotinib; first compound 0.003162 µM) | relative viability (Quizartinib + Crizotinib; first compound 0.01 µM) | relative viability (Quizartinib + Crizotinib; first compound 0.03162 µM) | relative viability (Quizartinib + Crizotinib; first compound 0.1 µM) | relative viability (Quizartinib + OSI-027; first compound 0.001 µM) | relative viability (Quizartinib + OSI-027; first compound 0.003162 µM) | relative viability (Quizartinib + OSI-027; first compound 0.01 µM) | relative viability (Quizartinib + OSI-027; first compound 0.03162 µM) | relative viability (Quizartinib + OSI-027; first compound 0.1 µM) | relative viability (YM155 + OSI-027; first compound 0.002 µM) | relative viability (YM155 + OSI-027; first compound 0.006325 µM) | relative viability (YM155 + OSI-027; first compound 0.02 µM) | relative viability (YM155 + OSI-027; first compound 0.06325 µM) | relative viability (Quizartinib + Decitabine; first compound 0.001 µM) | relative viability (Quizartinib + Decitabine; first compound 0.003162 µM) | relative viability (Quizartinib + Decitabine; first compound 0.01 µM) | relative viability (Quizartinib + Decitabine; first compound 0.03162 µM) | relative viability (Quizartinib + Decitabine; first compound 0.1 µM)
1 | 201T | 1 | 1 | 1.03 | 1.02 | 1.05 | 0.421 | 0.691 | 0.692 | 0.412 | 0.615 | 0.629 | 0.696 | 0.751 | 0.754 | 0.812 | 0.799 | 0.882 | 0.847 | 0.87
2 | A549 | 0.703 | 0.691 | 0.879 | 0.457 | 0.686 | – | – | – | – | – | – | – | – | – | 0.193 | 0.249 | 0.161 | 0.27 | 0.25
3 | A-427 | 0.808 | 0.926 | 0.941 | 0.813 | 0.638 | – | 0.446 | 0.437 | 0.484 | 0.529 | 0.478 | 0.562 | 0.597 | 0.458 | 0.517 | 0.529 | 0.582 | 0.515 | 0.566
4 | ABC-1 | 0.922 | 0.799 | 1.22 | 0.527 | 1.3 | 0.428 | 0.472 | 0.495 | 0.383 | 0.415 | 0.491 | 0.477 | 0.282 | 0.154 | – | 1 | 1.16 | 1.29 | 1.16
5 | BEN | 0.819 | 0.769 | 0.766 | 0.722 | 0.73 | 0.259 | 0.326 | 0.325 | 0.282 | 0.284 | 0.268 | 0.311 | 0.304 | 0.29 | 0.586 | 0.756 | 0.652 | 0.649 | 0.728
6 | CAL-12T | 0.652 | 0.662 | 0.724 | 0.202 | 0.696 | 0.658 | 0.683 | 0.862 | 0.503 | 0.846 | 0.657 | 0.619 | 0.746 | 0.529 | – | – | – | – | –
7 | COR-L23 | 0.573 | 0.538 | 0.753 | 0.51 | 0.67 | 0.743 | 0.73 | 0.946 | 0.696 | 0.768 | 0.692 | 0.735 | 0.488 | 0.132 | 0.436 | 0.457 | 0.398 | 0.372 | 0.467
8 | COR-L 105 | 0.788 | 0.734 | 0.669 | 0.49 | 0.902 | 0.656 | 0.69 | 0.649 | 0.619 | 0.678 | 0.574 | 0.694 | 0.762 | 0.54 | 0.642 | 0.653 | 0.641 | – | 0.625
9 | Calu-6 | 0.719 | 0.714 | 0.814 | 0.621 | 0.752 | – | – | – | – | – | – | – | – | – | – | – | – | – | –
10 | ChaGo-K-1 | 1.1 | 1.06 | 1.23 | – | 1.19 | 0.574 | 0.613 | 0.61 | 0.514 | 0.584 | 0.474 | 0.536 | 0.549 | 0.662 | – | 0.521 | 0.589 | 0.532 | 0.596
11 | EBC-1 | 0.197 | 0.173 | 0.211 | 0.207 | 0.211 | – | – | – | – | – | – | – | – | – | – | – | – | – | –
12 | EKVX | 0.867 | 0.683 | 0.779 | 0.994 | 1.09 | 0.43 | 0.691 | 0.656 | 0.674 | 0.728 | 0.683 | 0.759 | 0.683 | 0.687 | – | 0.282 | 0.361 | 0.369 | 0.353
13 | EMC-BAC-2 | 0.753 | 0.713 | 0.873 | 0.758 | 0.738 | 0.348 | 0.397 | 0.364 | – | 0.413 | 0.388 | 0.364 | 0.374 | 0.382 | 0.812 | 0.975 | 1.04 | – | 0.996
14 | EPLC-272H | 0.826 | 0.828 | 0.739 | 0.845 | 1.01 | 0.249 | 0.28 | 0.264 | 0.271 | 0.263 | 0.287 | 0.312 | 0.286 | 0.251 | 0.301 | 0.417 | 0.375 | 0.376 | 0.382
15 | H3255 | 0.736 | 0.86 | 1 | 0.834 | 0.868 | 0.502 | 0.589 | 0.628 | 0.62 | 0.433 | 0.577 | 0.56 | 0.652 | 0.569 | – | 0.576 | 0.674 | 0.601 | 0.738
16 | HARA | 0.87 | 0.97 | 1.17 | 1.08 | 1.09 | – | 0.523 | 0.368 | 0.423 | 0.325 | 0.495 | 0.51 | 0.792 | 0.505 | 0.456 | 0.518 | 0.743 | 0.522 | 0.703
17 | HCC-15 | 0.798 | 0.79 | 0.817 | 0.802 | 0.81 | – | 0.71 | 0.583 | – | 0.644 | 0.693 | 0.758 | 0.721 | 0.534 | 0.57 | 0.651 | 0.612 | 0.521 | 0.615
18 | HCC-44 | 0.66 | 0.817 | 0.927 | 0.765 | 0.682 | – | 0.641 | 0.416 | 0.475 | 0.549 | 0.45 | 0.608 | 0.58 | 0.304 | 0.864 | 0.798 | 0.905 | 0.996 | 0.855
19 | HCC-78 | 0.315 | 0.345 | 0.376 | 0.319 | 0.391 | 0.398 | 0.375 | 0.357 | 0.325 | 0.377 | 0.361 | 0.379 | 0.385 | 0.383 | 0.651 | 0.624 | 0.619 | 0.631 | 0.751
